{
  "source": "patent US20040121307A1",
  "about": "“Early detection of cellular differentiation using optophoresis” (Genoptix, Inc, priority 2002, published 2004)",
  "key": {"U937 cells [1]": {"tested_on": "U937 cells", "experiment": "Experiment 4: effect of camptothecin, escape velocity", "assay_type": "cell-based", "conditions": "for escape velocity, Average: 0.04 μg/ml camptothecin", "method": "The objective of this experiment is to test the effects of camptothecin on the escape velocities of U937 cells. Camptothecin inhibits DNA topoisomerase I and induces apoptosis. A control and three concentrations of camptothecin were tested: […]. After adding the camptothecin, the flasks are incubated at 37° C. 5% CO2.\nAt the timepoints of 4 hours and 6 hours, 200 μl of cells are spun for 5 minutes at 5000 rpm. The cells are then resuspended in […] PBS/1% BSA and […] trypan blue.\nOptophoretic techniques have been investigated for their potential to detect the early onset of apoptosis in mammalian cells. U.S. patent application Ser. No. 10,240,611, for example, discloses multiple experiments in which U937 cells were treated with camptothecin and subsequently monitored Optophoretically using measured escape velocities. In one experiment, the escape velocity of the camptothecin-treated cells were measured at 4 and 6 hours after treatment. Noticeable changes in escape velocity were seen as early as 4 hours after treatment (see, e.g., FIG. 34). In that experiment, U937 cells were treated with 4 μg/ml of camptothecin and resuspended in PBS/1% BSA. Escape velocity measurements were taken after 4 and 6 hours. Table 18, reproduced below, includes the results of the escape velocity measurements for the test cells as well as the controls."}, "CEM/C2 cell line": {"tested_on": "CEM/C2 cell line", "conditions": "cell lines obtained from ATCC; cited from earlier work"}, "[2]": {"tested_on": "activated caspases in U937 cells", "experiment": "Homogeneous Caspases Assay, Fluorimetric", "assay_type": "cell-based", "conditions": "4 μg/ml camptothecin, 300 cells/well", "description": "Another assay that provides for even earlier detection of apoptotic events are assays that detect caspase activation. For example, the Homogeneous Caspases Assay, Fluorimetric (available from Roche, catalog no. 3005372), is able to detect caspase activation. […] The kit uses the substrate DEVD-Rhodamine 110 which is cleaved by activated caspases. When DEVD-Rhodamine 110 is cleaved, the released Rhodamine-110 molecule fluoresces upon excitation. By comparing the fluorescence from an apoptotic sample and an uninduced control, the increase in caspase activity can be quantified. While caspase assays do have the ability to detect relatively early apoptotic events, the assays require fluorometric enzyme substrates. Yet another experiment using U937 cells treated with 4 μg/ml camptothecin was carried out. In this experiment, the cells were subject to analysis using a caspase assay (Homogeneous Caspases Assay, Fluorimetric-available from Roche, catalog no. 3005372). The caspase assay is a fluorometric assay carried out in 96-well plates. […] Upon cleavage of the substrate by activated caspases, fluorescence of the released Rhodamine 110 is measured. […] FIG. 102 illustrates a graph of the relative fluorescence units (RFU) as a function of incubation times (hours) for the control (blank) as well as the camptothecin-treated cells."}, "U937 cells [3]": {"tested_on": "U937 cells", "experiment": "ApoAlert Annexin V assay (FACS)", "assay_type": "cell-based", "conditions": "4 μg/ml camptothecin", "method": "Still other assays provide earlier indications of the onset of apoptosis. For example, commercially available assays, such as the ApoAlert Annexin V assay (available from CLONETECH) are able to detect changes in the plasma membrane by using a FITC conjugate of annexin V. The ApoAlert Annexin V assay is based on the observation that within about 6-10 hours after the onset of apoptosis, most cell types translocate phosphatidylserine (PS) from the inner face of the plasma membrane to the exterior of the cell surface. Once the PS is exposed on the exterior of the cell surface, the presence of PS can be detected using a FITC conjugate of annexin V. Fluorescence microscopy and flow cytometry can then be used to detect the binding of the FITC conjugate to the […]. While this assay does provide for relatively early detection of apoptotic events, the assay requires labeled annexin V markers as well as subsequent analysis by fluorescent microscopy or flow cytometry.\nAnother experiment using U937 cells treated with 4 μg/ml camptothecin was also carried out. In this experiment, however, the cells were subject to analysis using an annexin V assay. The assay was performed using the ApoAlert Annexin V Apoptosis Kit (available from Clonetech, catalog no. K2025-1). […] Significant annexin V binding is seen later in the 3 and 4 hour time points. […]"}, "K562 Cells [4]": {"tested_on": "K562 Cells", "experiment": "Escape velocities of different cell types (1064 system, CYTOP coated coverslips)", "assay_type": "cell-based", "conditions": "26 Hr. Taxol Treatment", "description": "Certain of the data reported herein were generated with the following setup. Optical gradient fields were generated using a Michelson interferometer and either a 150 mW, 812 nm laser (812 system) or a 2.5 W, 1064 nm laser (1064 system). The 812 system used a 100× (1.25 NA) oil immersion lens to focus the fringe pattern and to visualize the sample. The 1064 system used a 20× objective to focus the fringes and a 60× objective to visualize the sample. In general the sample cell was a coated microscope slide and/or coverslip that was sealed with Vaseline. Coverslip spacers controlled the height of the cell at approximately 150 micrometers.\nEscape velocities were measured using a gradient field generated by the 1064 system on CYTOP coated coverslips."}, "K562 Cells [5]": {"tested_on": "K562 Cells", "experiment": "Experiment 7: time and concentration dependence of paciltaxel, escape velocity", "assay_type": "cell-based", "design": "escape velocity, Ave.: unit not given here", "method": "In this experiment, the effect of time and concentration of paciltaxel was tested using K562 cells. Paciltaxel is a chemotherapeutic agent whose mechanism of action is the […] and the subsequent disruption of the cytoskeleton in cells. The timepoints tested were 4 hours, 23 hours, 30 hours and 47 hours. The concentrations of paciltaxel used in the experiment were 10 nM, 1 nM, 100 pM, and 10 pM. At each timepoint, 300 μl of cells were removed from each sample and centrifuged for 5 minutes at 5,000 rpm. The cells were then resuspended in PBS/1% BSA and trypan blue."}},
  "data": [
    {"smiles": "CC[C@@]1(O)C(=O)OCc2c1cc1n(c2=O)Cc2cc3ccccc3nc2-1", "note": "[camptothecin]", "values": [
      {"measurement": "shift in escape velocity over time", "setting": "U937 cells [1]; 40 ng/ml camptothecin, 4 and 6 hours (FIG. 34)", "value": "shift to lower escape velocities over time"},
      {"measurement": "escape velocity, Average", "setting": "U937 cells [1]; 4 hours", "value": 10.16, "unit": "μm/sec"},
      {"measurement": "escape velocity, Average", "setting": "U937 cells [1]; 6 hours", "value": 9.52, "unit": "μm/sec"},
      {"measurement": "fold less sensitive than parental CCRF-CEM", "setting": "CEM/C2 cell line", "value": 970, "unit": "fold"},
      {"measurement": "time after administration at which caspase activity is detected", "setting": "[2]", "value": "> 4", "unit": "h"},
      {"measurement": "time at which the annexin V assay begins to detect the onset of apoptosis", "setting": "U937 cells [3]", "value": 2, "unit": "h"}
    ]},
    {"smiles": "CC(=O)O[C@H]1C(=O)[C@@]2(C)[C@H]([C@H](OC(=O)c3ccccc3)[C@]3(O)C[C@H](OC(=O)[C@H](O)[C@@H](NC(=O)c4ccccc4)c4ccccc4)C(C)=C1C3(C)C)[C@]1(OC(C)=O)CO[C@@H]1C[C@@H]2O", "note": "[paciltaxel]", "values": [
      {"measurement": "Escape Velocity", "setting": "K562 Cells [4]", "value": "8.2 +/− 0.4 um/sec."},
      {"measurement": "escape velocity, Ave.", "setting": "K562 Cells [5]; 10 pM paciltaxel, 4 Hours", "value": 15.7},
      {"measurement": "escape velocity, Ave.", "setting": "K562 Cells [5]; 10 pM paciltaxel, 23 Hours", "value": 15.7},
      {"measurement": "escape velocity, Ave.", "setting": "K562 Cells [5]; 10 pM paciltaxel, 30 Hours", "value": 16.0},
      {"measurement": "escape velocity, Ave.", "setting": "K562 Cells [5]; 10 pM paciltaxel, 47 Hours", "value": 16.2},
      {"measurement": "optophoretic effect on cells", "setting": "K562 Cells [5]; 10 pM to 10 nM, 4 to 47 hours", "value": "both a time and dose dependent optophoretic effect"},
      {"measurement": "escape velocity, Ave.", "setting": "K562 Cells [5]; 100 pM paciltaxel, 4 Hours", "value": 15.9},
      {"measurement": "escape velocity, Ave.", "setting": "K562 Cells [5]; 100 pM paciltaxel, 23 Hours", "value": 17.1},
      {"measurement": "escape velocity, Ave.", "setting": "K562 Cells [5]; 100 pM paciltaxel, 30 Hours", "value": 17.6},
      {"measurement": "escape velocity, Ave.", "setting": "K562 Cells [5]; 100 pM paciltaxel, 47 Hours", "value": 17.0},
      {"measurement": "escape velocity, Ave.", "setting": "K562 Cells [5]; 1 nM paciltaxel, 4 Hours", "value": 15.6},
      {"measurement": "escape velocity, Ave.", "setting": "K562 Cells [5]; 1 nM paciltaxel, 23 Hours", "value": 16.9},
      {"measurement": "escape velocity, Ave.", "setting": "K562 Cells [5]; 1 nM paciltaxel, 30 Hours", "value": 16.9},
      {"measurement": "escape velocity, Ave.", "setting": "K562 Cells [5]; 1 nM paciltaxel, 47 Hours", "value": 16.7},
      {"measurement": "escape velocity, Ave.", "setting": "K562 Cells [5]; 10 nM paciltaxel, 4 Hours", "value": 15.3},
      {"measurement": "escape velocity, Ave.", "setting": "K562 Cells [5]; 10 nM paciltaxel, 23 Hours", "value": 16.9},
      {"measurement": "escape velocity, Ave.", "setting": "K562 Cells [5]; 10 nM paciltaxel, 30 Hours", "value": 17.4},
      {"measurement": "escape velocity, Ave.", "setting": "K562 Cells [5]; 10 nM paciltaxel, 47 Hours", "value": 17.1}
    ]}
  ]
}
